Experimental data taken from US20090092975A1, “SELECTABLE MARKER” (Mologic Ltd, priority 2005, published 2009).
Like-named read-outs stand apart in the source and are kept apart here.

Columns and labels:
[1] = test system: Saccharomyces cerevisiae strain 62 expressing PAD1; format: cell-based; conditions: predicted decarboxylation product in headspace; weak acid 0.5 mM, YEPD pH 4, 10 h at 28° C.; 0 = no decarboxylation
Protocol: S. cerevisiae strain 62 (which expresses the PAD1 gene) was cultured for 48 hr in YEPD pH 4, Yeast extract 10 g, Peptone 20 g, Glucose 20 g, at 28° C. in a shake flask, 120 rpm. The stationary-phase cells were inoculated into capped 28 ml McCartney bottles containing 10 mls YEPD pH 4, at 1 million cells per ml. Each bottle also contained one of 70 substrate weak acids at 0.5 mM. Tubes were then shaken for 10 h at 28° C.
1 ml samples of the headspace were passed into stainless-steel thermal desorption tubes, followed by a 10 ml air flush. (Desorption tubes—89 mm×5 mm ID, packed with 200 mg Tenax TA 60-80 mesh, Phase Separations, UK).
Thermal desorption tubes were placed in a Perkin Elmer ATD400 thermal desorption system, and the volatiles transferred to the Gas Chromatograph in a 2 stage process. Primary desorption was 250° C. for 10 min with a helium flow of […]. Using a split ratio of 1:1, volatiles were retained on a cold trap (25 mg Tenax TA) held at −30° C. Secondary desorption was carried out by rapidly heating and holding the cold trap at 250° C. for 2 min, with a helium flow of 20 ml/min and split ratio of 19:1. A DB624 column {30 m×0.32 mm, 1.8 microns film thickness} installed in a Carbo Erba GC800 was used to achieve separation and introduction of the volatile to the mass spectrometer. The column temperature was held at 40° C. for 2 min then increased at 5° C./min to 250° C. The column outlet was coupled via a heated transfer line at 250° C. into the ion source of the mass spectrometer operated at 70 eV in electron ionization (EI) mode. The source temperature was at 200° C. and the detector photomultiplier at 500V. Full scan MS data acquisition was carried out from m/z 30 to 300, with 0.6 sec scan and 0.05 sec inter scan delay.
The results are shown in Table 3, in each case the “predicted product” being the product which would be produced if decarboxylation of the weak acid were to take place.

[2] = cited from earlier work
[3] = test system: S. cerevisiae BY4741 (PAD1) and S. cerevisiae YO5833 (Δ pad1); test: Selection of PAD1-gene containing yeast in broth culture by weak acid; format: cell-based, Saccharomyces cerevisiae; conditions: buffered YEPD pH 4.0, 14 days at 25° C., growth by OD 600 nm
Protocol: Flasks were cultured at 25° C. for 14 days, shaken at 120 rpm on an orbital shaker (25 mm orbit). After 14 days, yeast growth was measured by spectrophotometer at 600 nm (Optical Density, OD 600 nm).
Yeast strains S. cerevisiae BY4741 (PAD1) and S. cerevisiae YO5833—Euroscarf (Δ pad1) were separately inoculated at 10^3 cells/ml into 100 ml conical flasks containing 50 mls buffered YEPD pH 4.0 (glycerol 20 g/l, Bacteriological peptone 20 g/l, yeast extract 10 g/l, succinic acid 3 g/l, adjusted to pH 4.0 with potassium hydroxide) each containing higher concentrations of 4-Methylcinnamic acid, 0-0.11 mM. Flasks were cultured for 14 days at 25° C., shaken at 160 rpm on an orbital shaker (25 mm orbit). After 14 days, yeast growth was measured by spectrophotometer at 600 nm (Optical Density, OD 600 nm).

[4] = test system: S. cerevisiae BY4741 (PAD1); test: Selection in agar, growth of PAD1-containing yeast; format: cell-based, Saccharomyces cerevisiae; conditions: 4-Methylcinnamic acid 0.096 mM in agar, pH 4.0, 10 days at 25° C.
Protocol: (§1) Buffered YEPD containing 4-Methylcinnamic acid, was prepared as follows: glycerol 20 g/l, Bacteriological peptone 20 g/l, yeast extract […], agar 15 g/l, succinic acid 3 g/l, 4-Methylcinnamic acid 15.55 mg/l (0.096 mM). Agar was sterilised by autoclaving at pH 6.0, cooled to 50° C., adjusted to pH 4.0, then poured into Petri dishes and allowed to set. Agar plates were spread with dilute cultures of S. cerevisiae BY4741 (PAD1) (upper half of plate—FIG. 8), and dilute cultures of S. cerevisiae YO5833—Euroscarf (Δ pad1) on the lower half of the plate.

[5] = test system: S. cerevisiae YO5833 (Δ pad1); test: Selection in agar, growth of Δ pad1 yeast; format: cell-based, Saccharomyces cerevisiae; conditions: 4-Methylcinnamic acid 0.096 mM in agar, pH 4.0, 10 days at 25° C.
Protocol: as §1

[6] = test system: decarboxylase from mould spores; conditions: 1 mM sorbic acid, equimolar 1,3-pentadiene in headspace within 18 hours; cited from earlier work
[7] = Table 1, monocarboxylic weak acids
[8] = Table 2, most preferred weak acids

For `C=CC=CC(=O)O` [2,4-Pentadienoic acid], the “GCMS Peak area” value [1] is given as 107, the Pka [2, 7] is given as 4.72 and the Pka [2, 8] is given as 4.72.

For `CCCCCCCC=CC(=O)O` [2-Decenoic acid], the “GCMS Peak area” value [1] is given as 0 and the Pka [2, 7] is given as 3.9018.

In the case of `O=C(O)C=Cc1ccccc1O` [2-Hydroxy-cinnamic acid], the “GCMS Peak area” value [1] is listed as 0 and the Pka [2, 7] is listed as 4.7.

In the case of `CCCCCCC=CC(=O)O` [2-Nonenoic acid], the “GCMS Peak area” value [1] is listed as 0 and the Pka [2, 7] is listed as 3.9148.

In the case of `O=C(O)C=Cc1cccs1` [3-(2-Thienyl)acrylic acid], the “GCMS Peak area” value [1] is given as 20571, the Pka [2, 7] is given as 4.2 and the Pka [2, 8] is given as 4.2.

In the case of `O=C(O)C=Cc1ccsc1` [3-(3-Thienyl)acrylic acid], the “GCMS Peak area” value [1] is given as 1586, the Pka [2, 7] is given as 4.1 and the Pka [2, 8] is given as 4.1.

In the case of `O=C(O)C=Cc1ccoc1` [3-Furan-acrylic acid], the “GCMS Peak area” value [1] is listed as 2165, the Pka [2, 7] is listed as 3.9 and the Pka [2, 8] is listed as 3.9.

For `O=C(O)C=Cc1cccc(O)c1` [3-Hydroxy-cinnamic acid], the “GCMS Peak area” value [1] is listed as 0 and the Pka [2, 7] is listed as 4.6.

With `O=C(O)C=Cc1ccc(F)cc1` [4-Fluoro-cinnamic acid] the “GCMS Peak area” value [1] was 18699 and the “concentration range showing good selection for PAD1-containing yeasts” value [3] was 0.15 to 0.225 mM.

With `Cc1ccc(C=CC(=O)O)cc1` [4-Methyl-cinnamic acid] the “GCMS Peak area” value [1] was 11013, the “concentration range showing good selection for PAD1-containing yeasts” value [3] was 0.075 to 0.11 mM and the “growth of PAD1-containing yeast cells on agar” value [4] was “formed large colonies”. For the same compound, the “growth of Δ pad1 yeast on agar” value [5] was “barely perceptible”.

For `C=CCCCC(=O)O` [5-Hexenoic acid], the “GCMS Peak area” value [1] is given as 0 and the Pka [2, 7] is given as 4.81.

In the case of `O=C(O)/C=C/c1ccc(O)c(O)c1` [Caffeic acid], the “GCMS Peak area” value [1] is given as 0 and the Pka [2, 7] is given as 4.7.

In the case of `C/C=C/C(=O)O` [Crotonic acid], the “GCMS Peak area” value [1] is given as 0 and the Pka [2, 7] is given as 4.17.

For `COc1cc(/C=C/C(=O)O)ccc1O` [Ferulic acid], the “GCMS Peak area” value [1] is listed as 0 and the Pka [2, 7] is listed as 4.58.

In the case of `CC(C)=CCC/C(C)=C/C(=O)O` [Geranic acid], the “GCMS Peak area” value [1] is listed as 0 and the Pka [2, 7] is listed as 4.7211.

In the case of `CCCCCCC(=O)O` [Heptanoic acid], the “GCMS Peak area” value [1] is given as 0 and the Pka [2, 7] is given as 4.8.

In the case of `C/C=C/C=C/C(=O)O` [Sorbic acid], the “GCMS Peak area” value [1] is listed as 8795 and the “removal of weak acid by decarboxylase” value [6] is listed as “completely removed”.

For `O=C(O)/C=C/c1c[nH]cn1` [Urocanic acid], the “GCMS Peak area” value [1] was 0.

For `CCCCC(=O)O` [Valeric acid], the “GCMS Peak area” value [1] was 0.

In the case of `O=C(O)C(F)=Cc1ccccc1` [alpha-fluoro-cinnamic acid], the “GCMS Peak area” value [1] is listed as 2659, the Pka [2, 7] is listed as 4.45 and the Pka [2, 8] is listed as 4.45.

For `CC(=Cc1ccccc1)C(=O)O` [alpha-methyl-cinnamic acid], the “GCMS Peak area” value [1] is given as 889, the Pka [2, 7] is given as 4.45 and the Pka [2, 8] is given as 4.45.

For `O=C(O)C(=Cc1ccccc1)c1ccccc1` [alpha-phenyl-cinnamic acid], the “GCMS Peak area” value [1] was 0.

For `CC/C=C\CC(=O)O` [cis-3-Hexenoic acid], the “GCMS Peak area” value [1] is given as 0 and the Pka [2, 7] is given as 4.608.

For `C=CCC/C=C/C(=O)O` [trans, trans-2,6-Heptadienoic acid], the “GCMS Peak area” value [1] is given as 0 and the Pka [2, 7] is given as 3.7528.

With `O=C(O)/C=C/c1ccc(Cl)cc1Cl` [trans-2,4-Dichloro-cinnamic acid] the “GCMS Peak area” value [1] was 4428.

For `CCCC/C=C/C(=O)O` [trans-2-Heptenoic acid], the “GCMS Peak area” value [1] is listed as 0 and the Pka [2, 7] is listed as 3.7839.

For `CCC/C=C/C(=O)O` [trans-2-Hexenoic acid], the “GCMS Peak area” value [1] is given as 0 and the Pka [2, 7] is given as 3.8306.

For `CCCCC/C=C/C(=O)O` [trans-2-Octenoic acid], the “GCMS Peak area” value [1] is listed as 0 and the Pka [2, 7] is listed as 3.902.

For `CC/C=C/C(=O)O` [trans-2-Pentenoic acid], the “GCMS Peak area” value [1] is listed as 0 and the Pka [2, 7] is listed as 4.1578.

For `CC/C=C/CC(=O)O` [trans-3-Hexenoic acid], the “GCMS Peak area” value [1] is given as 0 and the Pka [2, 7] is given as 4.608.

For `C/C=C/CCC(=O)O` [trans-4-Hexenoic acid], the “GCMS Peak area” value [1] is listed as 0 and the Pka [2, 7] is listed as 4.6984.

In the case of `O=C(O)C/C=C/c1ccccc1` [trans-Styrylacetic acid], the “GCMS Peak area” value [1] is listed as 0 and the Pka [2, 7] is listed as 4.688.
